From PubChem BioAssay AID1259407 (Chemical Carcinogenesis Research Information System (CCRIS), 2018)
Activity calls are given as the source filed them. The rule behind the calls is not given here.

Tested on: CCRIS mutagenicity, Ames/micronucleus/aberration tests
Assay: CCRIS mutagenicity studies
[1] = Test System: AMES SALMONELLA TYPHIMURIUM, Strain/Indicator: TA97, Metabolic Activation: NONE, Method: STANDARD PLATE
[2] = Test System: AMES SALMONELLA TYPHIMURIUM, Strain/Indicator: TA97, Metabolic Activation: RAT, LIVER, S-9, AROCLOR 1254, Method: STANDARD PLATE
[3] = Test System: AMES SALMONELLA TYPHIMURIUM, Strain/Indicator: TA98, Metabolic Activation: NONE, Method: STANDARD PLATE
[4] = Test System: AMES SALMONELLA TYPHIMURIUM, Strain/Indicator: TA98, Metabolic Activation: RAT, LIVER, S-9, AROCLOR 1254, Method: STANDARD PLATE
[5] = Test System: AMES SALMONELLA TYPHIMURIUM, Strain/Indicator: TA100, Metabolic Activation: NONE, Method: STANDARD PLATE
[6] = Test System: AMES SALMONELLA TYPHIMURIUM, Strain/Indicator: TA100, Metabolic Activation: RAT, LIVER, S-9, AROCLOR 1254, Method: STANDARD PLATE
[7] = Test System: AMES SALMONELLA TYPHIMURIUM, Strain/Indicator: TA1535, Metabolic Activation: NONE, Method: STANDARD PLATE
[8] = Test System: AMES SALMONELLA TYPHIMURIUM, Strain/Indicator: TA1535, Metabolic Activation: RAT, LIVER, S-9, AROCLOR 1254, Method: STANDARD PLATE
[9] = Test System: AMES SALMONELLA TYPHIMURIUM, Strain/Indicator: TA1537, Metabolic Activation: NONE, Method: STANDARD PLATE
[10] = Test System: AMES SALMONELLA TYPHIMURIUM, Strain/Indicator: TA1537, Metabolic Activation: RAT, LIVER, S-9, AROCLOR 1254, Method: STANDARD PLATE
[11] = Test System: AMES SALMONELLA TYPHIMURIUM, Strain/Indicator: TA100, Metabolic Activation: NONE, Method: PREINCUBATION

SMILES: Oc1cccc(Cl)c1
- mutagenic call [1]: active; positive
- mutagenic call [2]: active; positive
- mutagenic call [3]: active; positive
- mutagenic call [4]: active; positive
- mutagenic call [5]: active; positive
- mutagenic call [6]: inactive; negative
- mutagenic call (Test System: AMES SALMONELLA TYPHIMURIUM, Strain/Indicator: TA104, Metabolic Activation: NONE, Method: STANDARD PLATE): inactive; negative
- mutagenic call (Test System: AMES SALMONELLA TYPHIMURIUM, Strain/Indicator: TA104, Metabolic Activation: RAT, LIVER, S-9, AROCLOR 1254, Method: STANDARD PLATE): inactive; negative

SMILES: Cc1ccc(NS(=O)(=O)c2cccc3cccnc23)cc1
- mutagenic call [3]: inactive; negative
- mutagenic call [4]: inactive; negative
- mutagenic call [5]: inactive; negative
- mutagenic call [6]: inactive; negative
- mutagenic call [7]: inactive; negative
- mutagenic call [8]: inactive; negative
- mutagenic call [9]: inactive; negative
- mutagenic call [10]: inactive; negative

SMILES: C=COC(C)=O
- mutagenic call [1]: inactive; negative
- mutagenic call [2]: inactive; negative
- mutagenic call [3]: inactive; negative
- mutagenic call [4]: inactive; negative
- mutagenic call [5]: inactive; negative
- mutagenic call [6]: inactive; negative
- mutagenic call (Test System: AMES SALMONELLA TYPHIMURIUM, Strain/Indicator: TA102, Metabolic Activation: RAT LIVER S-9, PHENOBARBITAL AND 5,6-BENZOFLAVONE, Method: STANDARD PLATE): inactive; negative
- mutagenic call (Test System: AMES SALMONELLA TYPHIMURIUM, Strain/Indicator: TA102, Metabolic Activation: RAT, LIVER, S-9, AROCLOR 1254, Method: PREINCUBATION): active; positive
- mutagenic call (Test System: AMES SALMONELLA TYPHIMURIUM, Strain/Indicator: TA102, Metabolic Activation: RAT, LIVER, S-9, AROCLOR 1254, Method: STANDARD PLATE): inactive; negative
- mutagenic call (Test System: AMES SALMONELLA TYPHIMURIUM, Strain/Indicator: TA2638, Metabolic Activation: RAT LIVER S-9, PHENOBARBITAL AND 5,6-BENZOFLAVONE, Method: STANDARD PLATE): inactive; negative
- mutagenic call (Test System: Ames Salmonella typhimurium, Strain/Indicator: TA98, Metabolic Activation: None, Method: Preincubation): inactive; negative
- mutagenic call (Test System: Ames Salmonella typhimurium, Strain/Indicator: TA98, Metabolic Activation: Rat, Liver, S9, Sodium phenobarbital and 5,6-benzoflavone (10%), Method: Preincubation): inactive; negative
- mutagenic call (Test System: Ames Salmonella typhimurium, Strain/Indicator: TA100, Metabolic Activation: None, Method: Preincubation): inactive; negative
- mutagenic call (Test System: Ames Salmonella typhimurium, Strain/Indicator: TA100, Metabolic Activation: Rat, Liver, S9, Sodium phenobarbital and 5,6-benzoflavone (10%), Method: Preincubation): inactive; negative
- mutagenic call (Test System: Ames Salmonella typhimurium, Strain/Indicator: TA1535, Metabolic Activation: None, Method: Preincubation): inactive; negative
- mutagenic call (Test System: Ames Salmonella typhimurium, Strain/Indicator: TA1535, Metabolic Activation: Rat, Liver, S9, Sodium phenobarbital and 5,6-benzoflavone (10%), Method: Preincubation): inactive; negative
- mutagenic call (Test System: Ames Salmonella typhimurium, Strain/Indicator: TA1537, Metabolic Activation: None, Method: Preincubation): inactive; negative
- mutagenic call (Test System: Ames Salmonella typhimurium, Strain/Indicator: TA1537, Metabolic Activation: Rat, Liver, S9, Sodium phenobarbital and 5,6-benzoflavone (10%), Method: Preincubation): inactive; negative
- mutagenic call (Test System: Ames Salmonella typhimurium, Strain/Indicator: YG7108pin3ERb5, Metabolic Activation: None, Method: Standard plate): inactive; negative
- mutagenic call (Test System: E. COLI, Strain/Indicator: WP2 (PKM101), Metabolic Activation: RAT LIVER S-9, PHENOBARBITAL AND 5,6-BENZOFLAVONE, Method: STANDARD PLATE): inactive; negative
- mutagenic call (Test System: E. COLI, Strain/Indicator: WP2 UVRA (PKM101), Metabolic Activation: RAT LIVER S-9, PHENOBARBITAL AND 5,6-BENZOFLAVONE, Method: STANDARD PLATE): inactive; negative
- mutagenic call (Test System: E. coli, Strain/Indicator: WP2uvrA/pKM101, Metabolic Activation: None, Method: Preincubation): inactive; negative
- mutagenic call (Test System: E. coli, Strain/Indicator: WP2uvrA/pKM101, Metabolic Activation: Rat, Liver, S9, Sodium phenobarbital and 5,6-benzoflavone (10%), Method: Preincubation): inactive; negative
- mutagenic call (Test System: MOUSE LYMPHOMA, Strain/Indicator: L5178Y (TK+/TK-), Metabolic Activation: NONE, Method: SUSPENSION/PLATE): active; positive. reevaluation of results: positive
- mutagenic call (Test System: Mouse lymphoma, Strain/Indicator: L5178Y (tk+/tk-), Metabolic Activation: Rat, Liver, S-9, Aroclor 1254, Method: Suspension/plate): active; positive

SMILES: CC[C@@]1(O)C[C@H](O[C@H]2C[C@H](N(C)C)[C@H](O[C@H]3C[C@H](O)[C@H](O[C@@H]4O[C@@H](C)C(=O)C=C4N)[C@H](C)O3)[C@H](C)O2)c2c(cc3c(c2O)C(=O)c2c(O)ccc(O)c2C3=O)[C@H]1C(=O)OC
- mutagenic call (Test System: AMES SALMONELLA TYPHIMURIUM, Strain/Indicator: TA98, Metabolic Activation: NONE): active; positive
- mutagenic call (Test System: AMES SALMONELLA TYPHIMURIUM, Strain/Indicator: TA98, Metabolic Activation: RAT, LIVER, S-9, AROCLOR 1254): active; positive

SMILES: O=C1c2ccccc2-c2c3c(cc4ccnc1c24)OCO3
- mutagenic call (Test System: AMES SALMONELLA TYPHIMURIUM, Strain/Indicator: TA98, Metabolic Activation: NONE, Method: PREINCUBATION): inactive; negative
- mutagenic call (Test System: AMES SALMONELLA TYPHIMURIUM, Strain/Indicator: TA98, Metabolic Activation: RAT, LIVER, S-9, PHENOBARBITAL AND BETA-NAPHTHOFLAVONE, Method: PREINCUBATION): active; positive
- mutagenic call [11]: inactive; negative
- mutagenic call (Test System: AMES SALMONELLA TYPHIMURIUM, Strain/Indicator: TA100, Metabolic Activation: RAT, LIVER, S-9, PHENOBARBITAL AND BETA-NAPHTHOFLAVONE, Method: PREINCUBATION): active; positive

SMILES: COc1cc2c(c3oc(=O)c4c(c13)CCOC4=O)[C@@H]1C=CO[C@@H]1O2
- mutagenic call (Test System: AMES SALMONELLA TYPHIMURIUM, Strain/Indicator: TA98, Metabolic Activation: RAT, LIVER, MICROSOMES, PHENOBARBITAL, Method: STANDARD PLATE): active; positive
- mutagenic call (Test System: AMES SALMONELLA TYPHIMURIUM, Strain/Indicator: TA98, Metabolic Activation: RAT, LIVER, S-9, PHENOBARBITAL, Method: STANDARD PLATE): active; positive
- mutagenic call [11]: active; positive
- mutagenic call (Test System: AMES SALMONELLA TYPHIMURIUM, Strain/Indicator: TA100, Metabolic Activation: RAT, LIVER, MICROSOMES, PHENOBARBITAL, Method: STANDARD PLATE): active; positive
- mutagenic call (Test System: AMES SALMONELLA TYPHIMURIUM, Strain/Indicator: TA100, Metabolic Activation: RAT, LIVER, S-9, PHENOBARBITAL, Method: PREINCUBATION): active; positive
- mutagenic call (Test System: UDS HUMAN FIBROBLASTS, Strain/Indicator: THY INCORP (NON-S-PHASE), Metabolic Activation: MOUSE, LIVER, S-9, Method: AUTORADIOGRAPHY): active; positive
- mutagenic call (Test System: UDS RODENT HEPATOCYTES, Strain/Indicator: THY INCORP (NON-S-PHASE), Method: AUTORADIOGRAPHY): active; positive

SMILES: NCCCCC(N)C(=O)O (stereo not drawn)
- mutagenic call (Test System: AMES SALMONELLA TYPHIMURIUM, Strain/Indicator: TA98, Metabolic Activation: RAT LIVER S-9, CHLOROPHENE, Method: STANDARD PLATE (COMPOUND HEATED AT 250 DEGREES CELSIUS FOR 20 MIN)): active; positive

SMILES: Cc1c(C)c2c(c(C)c1O)CC[C@@](C)(CCC[C@H](C)CCC[C@H](C)CCCC(C)C)O2
- mutagenic call [3]: inactive; negative
- mutagenic call [4]: inactive; negative
- mutagenic call [5]: inactive; negative
- mutagenic call [6]: inactive; negative
- mutagenic call [7]: inactive; negative
- mutagenic call [8]: inactive; negative
- mutagenic call [9]: inactive; negative
- mutagenic call [10]: inactive; negative
- mutagenic call (Test System: AMES SALMONELLA TYPHIMURIUM, Strain/Indicator: TA1538, Metabolic Activation: NONE, Method: STANDARD PLATE): inactive; negative
- mutagenic call (Test System: AMES SALMONELLA TYPHIMURIUM, Strain/Indicator: TA1538, Metabolic Activation: RAT, LIVER, S-9, AROCLOR 1254, Method: STANDARD PLATE): inactive; negative
- mutagenic call (Test System: E. COLI, Strain/Indicator: WP2, Metabolic Activation: NONE, Method: STANDARD PLATE): inactive; negative
- mutagenic call (Test System: E. COLI, Strain/Indicator: WP2, Metabolic Activation: RAT, LIVER, S-9, AROCLOR 1254, Method: STANDARD PLATE): inactive; negative

SMILES: O=[N+]([O-])c1ccc(OC[C@@H]2CO2)cc1
- mutagenic call [5]: active; positive
